Laboratory results from patent publication US20260262643A1, “HERBICIDAL BENZOXAZINES” (FMC CORPORATION, priority 2022, published 2026).

Key:
barnyardgrass [1] = test: Test C preemergence; assay type: in vivo, Echinochloa crusgalli
In short: (§1)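 Visual injury score, 0–100 (100 = complete control), taken 10 days after treatment relative to untreated controls. Pre: directed spray onto soil over sown seeds. Post: foliar spray at one- to two-leaf stage, 2–10 cm. Solvent/surfactant formulation; loam–sand soil; greenhouse.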

blackgrass [2] = test: Test C preemergence; assay type: in vivo, Alopecurus myosuroides
In short: as §1

corn [3] = test: Test C preemergence; assay type: in vivo, Zea mays
In short: as §1

green foxtail [4] = test: Test C preemergence; assay type: in vivo, Setaria viridis
In short: as §1

kochia [5] = test: Test C preemergence; assay type: in vivo, Bassia scoparia
In short: as §1

oat, wild [6] = test: Test C preemergence; assay type: in vivo, Avena fatua
In short: as §1

pigweed, palmer [7] = test: Test C preemergence; assay type: in vivo, Amaranthus palmeri
In short: as §1

ragweed [8] = test: Test C preemergence; assay type: in vivo, Ambrosia artemisiifolia
In short: as §1

ryegrass, Italian [9] = test: Test C preemergence; assay type: in vivo, Lolium multiflorum
In short: as §1

soybean [10] = test: Test C preemergence; assay type: in vivo, Glycine max
In short: as §1

wheat [11] = test: Test C preemergence; assay type: in vivo, Triticum aestivum
In short: as §1

barnyardgrass [12] = test: Test C postemergence; assay type: in vivo, Echinochloa crusgalli; details: 10 days, 0 to 100 scale (0 no effect, 100 complete control)
In short: as §1

blackgrass [13] = test: Test C postemergence; assay type: in vivo, Alopecurus myosuroides; details: 10 days, 0 to 100 scale (0 no effect, 100 complete control)
In short: as §1

corn [14] = test: Test C postemergence; assay type: in vivo, Zea mays; details: 10 days, 0 to 100 scale (0 no effect, 100 complete control)
In short: as §1

green foxtail [15] = test: Test C postemergence; assay type: in vivo, Setaria viridis; details: 10 days, 0 to 100 scale (0 no effect, 100 complete control)
In short: as §1

kochia [16] = test: Test C postemergence; assay type: in vivo, Bassia scoparia; details: 10 days, 0 to 100 scale (0 no effect, 100 complete control)
In short: as §1

oat, wild [17] = test: Test C postemergence; assay type: in vivo, Avena fatua; details: 10 days, 0 to 100 scale (0 no effect, 100 complete control)
In short: as §1

pigweed, palmer [18] = test: Test C postemergence; assay type: in vivo, Amaranthus palmeri; details: 10 days, 0 to 100 scale (0 no effect, 100 complete control)
In short: as §1

ragweed [19] = test: Test C postemergence; assay type: in vivo, Ambrosia artemisiifolia; details: 10 days, 0 to 100 scale (0 no effect, 100 complete control)
In short: as §1

ryegrass, Italian [20] = test: Test C postemergence; assay type: in vivo, Lolium multiflorum; details: 10 days, 0 to 100 scale (0 no effect, 100 complete control)
In short: as §1

soybean [21] = test: Test C postemergence; assay type: in vivo, Glycine max; details: 10 days, 0 to 100 scale (0 no effect, 100 complete control)
In short: as §1

wheat [22] = test: Test C postemergence; assay type: in vivo, Triticum aestivum; details: 10 days, 0 to 100 scale (0 no effect, 100 complete control)
In short: as §1

galium = test: Test C postemergence; assay type: in vivo, Galium aparine; details: 10 days, 0 to 100 scale (0 no effect, 100 complete control)
In short: as §1

horseweed = test: Test C postemergence; assay type: in vivo, Erigeron canadensis; details: 10 days, 0 to 100 scale (0 no effect, 100 complete control)
In short: as §1

barnyardgrass [23] = test: Test D flooded paddy test; assay type: in vivo, Echinochloa crus-galli; details: 250 g ai/ha, applied to paddy water, visual rating after 13 to 14 days, scale 0 to 100 (0 no effect, 100 complete control)
In short: (§2)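 At the 2-leaf stage, floodwater 3 cm deep received the test compound; that depth persisted throughout. Plants scored visually 13 to 14 days on, 0 (no effect) to 100 (complete control), dash indicating no result.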

ducksalad = test: Test D flooded paddy test; assay type: in vivo, Heteranthera limosa; details: 250 g ai/ha, applied to paddy water, visual rating after 13 to 14 days, scale 0 to 100 (0 no effect, 100 complete control)
In short: as §2

rice = test: Test D flooded paddy test; assay type: in vivo, Oryza sativa; details: 250 g ai/ha, applied to paddy water, visual rating after 13 to 14 days, scale 0 to 100 (0 no effect, 100 complete control)
In short: as §2

sedge, umbrella = test: Test D flooded paddy test; assay type: in vivo, Cyperus difformis; details: 250 g ai/ha, applied to paddy water, visual rating after 13 to 14 days, scale 0 to 100 (0 no effect, 100 complete control)
In short: as §2

[24] = 500 g ai/ha, preemergence, 0 to 100 scale (0 no effect, 100 complete control)
[25] = Preemergence, 125 g ai/ha, 0 to 100 scale, 0 no effect, 100 complete control

SMILES: CC(C)(C)c1ncn(-c2cccc(C(=O)N3CC(C(F)(F)F)Oc4c(Cl)cccc43)c2)n1 (stereo not shown) [Compound 353]
- Barnyardgrass plant response rating (barnyardgrass [1]; [24]): 70
- Plant response rating, Barnyardgrass (barnyardgrass [1]; [25]): 20
- Blackgrass plant response rating (blackgrass [2]; [24]): 50
- Plant response rating, Blackgrass (blackgrass [2]; [25]): 0
- Corn plant response rating (corn [3]; [24]): 10
- Plant response rating, Corn (corn [3]; [25]): 10
- Foxtail, Green plant response rating (green foxtail [4]; [24]): 100
- Plant response rating, Foxtail, Green (green foxtail [4]; [25]): 90
- Kochia plant response rating (kochia [5]; [24]): 70
- Plant response rating, Kochia (kochia [5]; [25]): 0
- Oat, Wild plant response rating (oat, wild [6]; [24]): 80
- Plant response rating, Oat, Wild (oat, wild [6]; [25]): 30
- Pigweed, Palmer plant response rating (pigweed, palmer [7]; [24]): 100
- Plant response rating, Pigweed, Palmer (pigweed, palmer [7]; [25]): 90
- Ragweed plant response rating (ragweed [8]; [24]): 0
- Plant response rating, Ragweed (ragweed [8]; [25]): 0
- Ryegrass, Italian plant response rating (ryegrass, Italian [9]; [24]): 90
- Plant response rating, Ryegrass, Italian (ryegrass, Italian [9]; [25]): 80
- Soybean plant response rating (soybean [10]; [24]): 40
- Plant response rating, Soybean (soybean [10]; [25]): 20
- Wheat plant response rating (wheat [11]; [24]): 30
- Plant response rating, Wheat (wheat [11]; [25]): 10
- Plant response rating, Barnyardgrass (barnyardgrass [12]; 500 g ai/ha, postemergence): 30
- Plant response rating, Barnyardgrass (barnyardgrass [12]; Postemergence, 125 g ai/ha): 10
- Plant response rating, Blackgrass (blackgrass [13]; 500 g ai/ha, postemergence): 30
- Plant response rating, Blackgrass (blackgrass [13]; Postemergence, 125 g ai/ha): 0
- Plant response rating, Corn (corn [14]; 500 g ai/ha, postemergence): 10
- Plant response rating, Corn (corn [14]; Postemergence, 125 g ai/ha): 10
- Plant response rating, Foxtail, Green (green foxtail [15]; 500 g ai/ha, postemergence): 40
- Plant response rating, Foxtail, Green (green foxtail [15]; Postemergence, 125 g ai/ha): 20
- Plant response rating, Kochia (kochia [16]; 500 g ai/ha, postemergence): 70
- Plant response rating, Kochia (kochia [16]; Postemergence, 125 g ai/ha): 60
- Plant response rating, Oat, Wild (oat, wild [17]; 500 g ai/ha, postemergence): 0
- Plant response rating, Oat, Wild (oat, wild [17]; Postemergence, 125 g ai/ha): 0
- Plant response rating, Pigweed, Palmer (pigweed, palmer [18]; 500 g ai/ha, postemergence): 100
- Plant response rating, Pigweed, Palmer (pigweed, palmer [18]; Postemergence, 125 g ai/ha): 90
- Plant response rating, Ragweed (ragweed [19]; 500 g ai/ha, postemergence): 60
- Plant response rating, Ragweed (ragweed [19]; Postemergence, 125 g ai/ha): 50
- Plant response rating, Ryegrass, Italian (ryegrass, Italian [20]; 500 g ai/ha, postemergence): 40
- Plant response rating, Ryegrass, Italian (ryegrass, Italian [20]; Postemergence, 125 g ai/ha): 20
- Plant response rating, Soybean (soybean [21]; 500 g ai/ha, postemergence): 80
- Plant response rating, Soybean (soybean [21]; Postemergence, 125 g ai/ha): 80
- Plant response rating, Wheat (wheat [22]; 500 g ai/ha, postemergence): 20
- Plant response rating, Wheat (wheat [22]; Postemergence, 125 g ai/ha): 20
- Plant response rating, Galium (galium; 500 g ai/ha, postemergence): 90
- Plant response rating, Galium (galium; Postemergence, 125 g ai/ha): 70
- Plant response rating, Horseweed (horseweed; 500 g ai/ha, postemergence): 0
- Plant response rating, Horseweed (horseweed; Postemergence, 125 g ai/ha): 20
- Plant response rating, Barnyardgrass (Flood) (barnyardgrass [23]): 0
- Plant response rating, Ducksalad (Flood) (ducksalad): 0
- Plant response rating, Rice (Flood) (rice): 0
- Plant response rating, Sedge, Umbrella (Flood) (sedge, umbrella): 0
